The target of this assay is T1, EPHB1 (Homo sapiens, UniProt P54762).
T1 construct: purchased Thermo Fisher Scientific (Life Technologies) SelectScreen
In words: SelectScreen Z'LYTE. The format is biochemical. The procedure, abridged:
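Percent values come from Thermo SelectScreen profiling of NU5455, combining activity and binding assays. CSF1R was run in Z'LYTE format at Km app ATP, and CAMK1 in Adapta format with ATP listed at 10.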

T1 sequence (P54762 18-984): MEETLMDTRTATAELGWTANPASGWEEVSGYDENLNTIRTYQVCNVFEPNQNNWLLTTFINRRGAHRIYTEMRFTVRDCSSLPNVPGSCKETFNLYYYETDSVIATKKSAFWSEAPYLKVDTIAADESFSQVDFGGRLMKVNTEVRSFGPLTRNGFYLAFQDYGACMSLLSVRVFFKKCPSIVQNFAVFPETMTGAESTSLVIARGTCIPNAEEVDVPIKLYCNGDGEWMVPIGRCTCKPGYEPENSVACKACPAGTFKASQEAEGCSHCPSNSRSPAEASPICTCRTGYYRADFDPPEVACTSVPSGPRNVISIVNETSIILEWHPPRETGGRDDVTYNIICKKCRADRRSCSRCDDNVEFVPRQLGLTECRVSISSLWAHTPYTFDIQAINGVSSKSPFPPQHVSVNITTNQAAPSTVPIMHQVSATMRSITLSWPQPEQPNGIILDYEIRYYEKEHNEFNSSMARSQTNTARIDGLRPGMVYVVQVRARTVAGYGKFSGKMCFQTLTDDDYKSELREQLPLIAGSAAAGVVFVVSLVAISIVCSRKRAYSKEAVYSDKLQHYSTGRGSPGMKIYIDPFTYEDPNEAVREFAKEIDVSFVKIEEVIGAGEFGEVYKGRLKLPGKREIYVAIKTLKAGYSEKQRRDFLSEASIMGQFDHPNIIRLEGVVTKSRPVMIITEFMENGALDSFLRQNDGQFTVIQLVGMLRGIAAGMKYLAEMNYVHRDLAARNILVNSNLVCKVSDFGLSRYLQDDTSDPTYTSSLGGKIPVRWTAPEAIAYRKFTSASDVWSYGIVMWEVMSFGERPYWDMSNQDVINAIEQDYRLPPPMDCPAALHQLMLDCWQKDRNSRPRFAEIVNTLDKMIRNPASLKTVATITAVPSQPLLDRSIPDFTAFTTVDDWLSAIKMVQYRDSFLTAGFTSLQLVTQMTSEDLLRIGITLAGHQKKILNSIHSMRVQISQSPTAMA

Take `CN(C(=O)CN1CCOCC1)c1ccc2sc3c(-c4cccc5c(=O)cc(N6CC7CCC(C6)O7)oc45)cccc3c2c1` [NU5455]: 1 µM produced 5.1% inhibition.

The values are drawn from PMC6934184, “Selective DNA-PKcs inhibition extends the therapeutic index of localized radiotherapy and chemotherapy” (The Journal of Clinical Investigation, 2019).
